Assay results as given in PMC8308870 (2021).

Tests used:
[1] = test system: k-RAS (FRET) (DNA, G4) AGGGCGGTGTGGGAAGAGGGA; assay: FRET melting; conditions: 60 mM K+, pH 7.4, 0.2 µM DNA
[2] = test system: T-Loop (t-Loop) (DNA, hairpin) TATAGCTATATTTTTTTATAGCTATA; assay: FRET melting; conditions: 60 mM K+, potassium cacodylate, pH 7.4, 0.2 µM DNA
[3] = test system: h-Telo (CD) (DNA, G4) GGGTTAGGGTTAGGGTTAGGG; assay: CD titration; conditions: 10 mM K+, 90 mM LiCl, 20 mM lithium cacodylate, 20 °C, 10 µM DNA, 0–25 eq
[4] = test system: Pu27mut (DNA, G4) TGGGGAGGGTGGAAAGGGTGGGGAAGG; assay: CD titration; conditions: 10 mM K+, 2 mM Mg2+, 10 mM (NH4)2SO4; ThermoPol buffer (20 mM Tris-HCl, 0.1% Triton X-100), pH 8.8; parallel G4 induced
[5] = test system: k-RAS (CD) (DNA, G4) AGGGCGGTGTGGGAAGAGGGA; assay: CD melting (265 nm); conditions: 50 mM K+, 50 mM LiCl; 20 mM lithium cacodylate, pH 7.2; 10 µM DNA; compound 5 eq
[6] = test system: c-MYC (Pu27) (DNA, G4) TGGGGAGGGTGGGGAGGGTGGGGAAGG; assay: CD melting (265 nm); conditions: 100 mM LiCl, no K+ listed; 20 mM lithium cacodylate, pH 7.2; 10 µM DNA; compound 5 eq
[7] = test system: k-RAS (CD) (DNA, G4) AGGGCGGTGTGGGAAGAGGGA; assay: CD titration; conditions: 50 mM K+, 50 mM LiCl; 20 mM lithium cacodylate, 20 °C; 10 µM DNA, 0–25 eq; ellipticity decrease, 295 nm band
[8] = test system: h-Telo (CD) (DNA, G4) GGGTTAGGGTTAGGGTTAGGG; assay: CD melting (290 nm); conditions: 10 mM K+, 90 mM LiCl; 20 mM lithium cacodylate, pH 7.2; 10 µM DNA; compound 5 eq
[9] = test system: h-Telo (FRET) (DNA, G4) GGGTTAGGGTTAGGGTTAGGG; assay: FRET melting; conditions: 60 mM K+, pH 7.4, 0.2 µM DNA
[10] = cacodylate, compound 5 µM (25 eq)

| SMILES | ΔTm [5] | ΔTm [6] | binding [7] | binding ([3]; topology maintained) | ΔTm [8] | other results |
| --- | --- | --- | --- | --- | --- | --- |
| C[n+]1cc(NC(=O)c2cccc(C(=O)Nc3cc4ccccc4[n+](C)c3)n2)cc2ccccc21 | > 40 °C | > 40 °C | – | – | – | ΔTm ([1]; potassium cacodylate, compound 5 eq (1 µM)): 35.6 ± 0.3 °C; ΔTm ([2]; compound 5 eq (1 µM)): 6.5 ± 0.1 °C; binding ([3]; hybrid to parallel switch): yes; binding [4]: yes |
| O=C(Nc1cncc2ccccc12)c1cccc(C(=O)Nc2cncc3ccccc23)n1 | – | – | – | – | – | ΔTm [1, 10]: < 0.5 °C |
| C[n+]1ccc(NC(=O)c2cccc(C(=O)Nc3cc[n+](C)c4ccccc34)n2)c2ccccc21 | – | – | yes | yes | – | – |
| C[n+]1ccc2c(NC(=O)c3cccc(C(=O)Nc4cccc5c[n+](C)ccc45)n3)cccc2c1 | 12.2 ± 0.2 °C | 5.3 ± 0.1 °C | yes | yes | 4.4 ± 0.2 °C | ΔTm ([2]; compound 25 eq (5 µM)): 1.8 ± 0.2 °C |
| O=C(Nc1ccc2ccccc2n1)c1cccc(C(=O)Nc2ccc3ccccc3n2)n1 | – | – | – | – | – | ΔTm [9, 10]: < 0.5 °C |
| C[n+]1cc(NC(=O)c2cccc(C(=O)Nc3c[n+](C)cc4ccccc34)n2)c2ccccc2c1 | – | – | yes | – | 14.9 ± 0.2 °C | ΔTm ([9]; potassium cacodylate, compound 25 eq (5 µM)): 22.7 ± 0.2 °C; binding ([3]; hybrid to antiparallel switch): yes |
